How the values were obtained:
A549 cells = test: Proliferation Assay (A549 cell viability, Cell Titer Fluor); assay type: cell-based; details: Homo sapiens, 72 hours
In short: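 1000 A549 cells/well, RPMI 1640/10% dialyzed FBS, 24 h attach; compound 72 h, 0.5% DMSO, 37 °C/5% CO2; Cell Titer Fluor fluorescence; EC50 via 4-parameter logistic.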

[1] = target: T1, purified recombinant human GAC (GLS1) (Homo sapiens, UniProt O94925); test: GLS1 Enzymatic Activity Assay (dual-coupled enzymatic assay); assay type: biochemical
T1 sequence (O94925 55-598 isoform O94925-3 limits assumed): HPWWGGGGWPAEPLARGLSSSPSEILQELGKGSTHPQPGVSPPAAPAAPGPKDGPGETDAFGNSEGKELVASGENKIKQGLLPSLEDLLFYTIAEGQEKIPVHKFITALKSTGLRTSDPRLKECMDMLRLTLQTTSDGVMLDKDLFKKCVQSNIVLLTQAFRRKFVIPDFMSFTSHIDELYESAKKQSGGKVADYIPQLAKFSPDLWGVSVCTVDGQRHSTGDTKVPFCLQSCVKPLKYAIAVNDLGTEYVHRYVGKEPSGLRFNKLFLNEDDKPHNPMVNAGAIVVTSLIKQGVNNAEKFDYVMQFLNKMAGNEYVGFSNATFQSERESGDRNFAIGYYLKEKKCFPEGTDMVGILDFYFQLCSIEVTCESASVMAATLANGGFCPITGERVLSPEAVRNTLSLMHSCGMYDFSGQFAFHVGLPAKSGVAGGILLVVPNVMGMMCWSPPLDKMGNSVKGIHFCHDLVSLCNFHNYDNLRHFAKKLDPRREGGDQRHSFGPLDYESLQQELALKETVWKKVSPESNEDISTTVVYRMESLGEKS
In short: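 In this coupled fluorometric format, phosphate-activated GAC (2 nM, 50 mM phosphate) is pre-exposed to compound for 10 min before 1 mM glutamine addition. Product is tracked as resorufin (530/590 nm) over time or at 20 min, and potency is derived by logistic fitting.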

| EC50 (A549 cells) | IC50 [1] | Compound |
| --- | --- | --- |
| 100 to 500 nM | < 100 nM | CC(C)S(=O)(=O)N1CC(c2cc3cc(CCCCn4cc(C(=O)NCc5cc(OC(F)(F)F)ccc5F)nn4)nnc3[nH]2)C1 [Example 230, N-{[2-fluoro-5-(trifluoromethoxy)phenyl]methyl}-1-(4-{6-[1-(propane-2-sulfonyl)azetidin-3-yl]-7H-pyrrolo[2,3-c]pyridazin-3-yl}butyl)-1H-1,2,3-triazole-4-carboxamide] |
| 100 to 500 nM | < 100 nM | CC(C)(O)c1ccnc(CNC(=O)c2cn(CCCCc3cc4cc(-c5ccccc5F)[nH]c4nn3)nn2)c1 [Example 239, 1-{4-[6-(2-fluorophenyl)-7H-pyrrolo[2,3-c]pyridazin-3-yl]butyl}-N-{[4-(2-hydroxypropan-2-yl)pyridin-2-yl]methyl}-1H-1,2,3-triazole-4-carboxamide] |
| 100 to 500 nM | 100 to 500 nM | CNC(=O)c1cn(CCCCc2cc3cc(-c4ccccc4F)[nH]c3nn2)nn1 [Example 240, 1-{4-[6-(2-fluorophenyl)-7H-pyrrolo[2,3-c]pyridazin-3-yl]butyl}-N-methyl-1H-1,2,3-triazole-4-carboxamide] |
| 100 to 500 nM | < 100 nM | O=C(NCc1ccc(C(F)(F)F)nc1)c1cn(CCCCc2cc3c(C4CC4)c(C4CC4)[nH]c3nn2)nn1 [Example 207, 1-(4-{5,6-dicyclopropyl-7H-pyrrolo[2,3-c]pyridazin-3-yl}butyl)-N-{[6-(trifluoromethyl)pyridin-3-yl]methyl}-1H-1,2,3-triazole-4-carboxamide] |
| 100 to 500 nM | < 100 nM | O=C(NCc1ccc(C(F)(F)F)cn1)c1cn(CCCCc2cc3c(-c4ccoc4)c(C4CC4)[nH]c3nn2)nn1 [Example 187, 1-{4-[6-cyclopropyl-5-(furan-3-yl)-7H-pyrrolo[2,3-c]pyridazin-3-yl]butyl}-N-{[5-(trifluoromethyl)pyridin-2-yl]methyl}-1H-1,2,3-triazole-4-carboxamide] |
| < 100 nM | < 100 nM | O=C(NCc1cc(OC(F)(F)F)ccc1F)c1cn(CCCCc2cc3cc(C4CN(C(=O)Cc5ccccc5)C4)[nH]c3nn2)nn1 [Example 238, N-{[2-fluoro-5-(trifluoromethoxy)phenyl]methyl)-1-(4-{6-[1-(2-phenylacetyl)azetidin-3-yl]-7H-pyrrolo[2,3-c]pyridazin-3-yl}butyl)-1H-1,2,3-triazole-4-carboxamide] |
| 100 to 500 nM | < 100 nM | Cc1ccc(CNC(=O)c2cn(CCCCc3cc4cc(-c5ccccc5)[nH]c4nn3)nn2)cn1 [Example 209, N-[(6-methylpyridin-3-yl)methyl]-1-(4-{6-phenyl-7H-pyrrolo[2,3-c]pyridazin-3-yl}butyl)-1H-1,2,3-triazole-4-carboxamide] |
| 100 to 500 nM | < 100 nM | O=C(NCc1ccccn1)c1cn(CC(F)CCc2cc3cc(-c4ccccc4F)[nH]c3nn2)nn1 (centres unmarked) [Example 242, 1-{2-fluoro-4-[6-(2-fluorophenyl)-7H-pyrrolo[2,3-c]pyridazin-3-yl]butyl}-N-(pyridin-2-ylmethyl)-1H-1,2,3-triazole-4-carboxamide] |

The next lines start with the compound.

| Compound | EC50 (A549 cells) | IC50 [1] |
| --- | --- | --- |
| CC(C)(O)c1ccc(CNC(=O)c2cn(CCCCc3cc4c(-c5ccc(F)cc5F)c(C5CC5)[nH]c4nn3)nn2)cn1 [Example 161, 1-{4-[6-cyclopropyl-5-(2,4-difluorophenyl)-7H-pyrrolo[2,3-c]pyridazin-3-yl]butyl}-N-{[6-(2-hydroxypropan-2-yl)pyridin-3-yl]methyl}-1H-1,2,3-triazole-4-carboxamide] | 100 to 500 nM | < 100 nM |
| Cc1ccc(CNC(=O)c2cn(CCCCc3cc4c(-c5ccccc5F)c(C5CC5)[nH]c4nn3)nn2)cn1 [Example 122, 1-{4-[6-cyclopropyl-5-(2-fluorophenyl)-7H-pyrrolo[2,3-c]pyridazin-3-yl]butyl}-N-[(6-methylpyridin-3-yl)methyl]-1H-1,2,3-triazole-4-carboxamide] | < 100 nM | < 100 nM |
| Cc1ccc(CNC(=O)c2cn(CCCCc3cc4cc(C5CCOCC5)[nH]c4nn3)nn2)cn1 [Example 99, N-[(6-methylpyridin-3-yl)methyl]-1-{4-[6-(oxan-4-yl)-7H-pyrrolo[2,3-c]pyridazin-3-yl]butyl}-1H-1,2,3-triazole-4-carboxamide] | 500 to 5000 nM | 100 to 500 nM |
| O=C(NCc1cc(OC(F)(F)F)ccc1F)c1cn(CCCCc2cc3cc(C4CN(C(=O)CC(F)(F)F)C4)[nH]c3nn2)nn1 [Example 141, N-{[2-fluoro-5-(trifluoromethoxy)phenyl]methyl}-1-(4-{6-[1-(3,3,3-trifluoropropanoyl)azetidin-3-yl]-7H-pyrrolo[2,3-c]pyridazin-3-yl}butyl)-1H-1,2,3-triazole-4-carboxamide] | 100 to 500 nM | < 100 nM |
| Cc1ccc(CNC(=O)c2cn(CCCCc3cc4c(F)c(C5CC5)[nH]c4nn3)nn2)cn1 [Example 90, 1-(4-(6-cyclopropyl-5-fluoro-7H-pyrrolo[2,3-c]pyridazin-3-yl)butyl)-N-((6-methylpyridin-3-yl)methyl)-1H-1,2,3-triazole-4-carboxamide 2,2,2-trifluoroacetate] | 500 to 5000 nM | < 100 nM |
| O=C(Cc1ccccc1)Nc1ccn(CCCCc2cc3cc(Cc4ccccc4)[nH]c3nn2)c(=O)n1 [Example 62, N-[1-(4-{6-benzyl-7H-pyrrolo[2,3-c]pyridazin-3-yl}butyl)-2-oxo-1,2-dihydropyrimidin-4-yl]-2-phenylacetamide] | 500 to 5000 nM | < 100 nM |
| O=C(Cc1cccc(OC(F)(F)F)c1)Nc1nnc(CCCCc2cc3cc(Cc4ccccc4)[nH]c3nn2)s1 [Example 58, N-[5-(4-{6-benzyl-7H-pyrrolo[2,3-c]pyridazin-3-yl}butyl)-1,3,4-thiadiazol-2-yl]-2-[3-(trifluoromethoxy)phenyl]acetamide] | 100 to 500 nM | < 100 nM |
| O=C(Cc1ccccn1)Nc1nnc(CCCCc2cc3cc[nH]c3nn2)s1 [Example 2, N-(5-(4-(7H-pyrrolo[2,3-c]pyridazin-3-yl)butyl)-1,3,4-thiadiazol-2-yl)-2-(pyridin-2-yl)acetamide] | 500 to 5000 nM | 500 to 5000 nM |
| CC(C)(O)c1ccnc(CNC(=O)c2cn(CCCCc3cc4cc(C5CC5)[nH]c4nn3)nn2)c1 [Example 17, 1-(4-(6-Cyclopropyl-7H-pyrrolo[2,3-c]pyridazin-3-yl)butyl)-N-((4-(2-hydroxypropan-2-yl)pyridin-2-yl)methyl)-1H-1,2,3-triazole-4-carboxamide 2,2,2-trifluoroacetate] | 500 to 5000 nM | 100 to 500 nM |
| O=C(NCc1cccc(C(F)(F)F)n1)c1cn(CCCCc2cc3c(-c4ccoc4)c(C4CC4)[nH]c3nn2)nn1 [Example 186, 1-{4-[6-cyclopropyl-5-(furan-3-yl)-7H-pyrrolo[2,3-c]pyridazin-3-yl]butyl}-N-{[6-(trifluoromethyl)pyridin-2-yl]methyl}-1H-1,2,3-triazole-4-carboxamide] | < 100 nM | < 100 nM |
| NCc1cccc(CC(=O)Nc2nnc(CCCCc3cc4cc(Cc5ccccc5)[nH]c4nn3)s2)c1 [Example 6, 2-(3-(aminomethyl)phenyl)-N-(5-(4-(6-benzyl-7H-pyrrolo[2,3-c]pyridazin-3-yl)butyl)-1,3,4-thiadiazol-2-yl)acetamide] | 500 to 5000 nM | < 100 nM |
| O=C(NCc1cccnc1)c1cn(CCCCc2cc3cc(C4CC4)[nH]c3nn2)nn1 [Example 36, 1-(4-{6-cyclopropyl-7H-pyrrolo[2,3-c]pyridazin-3-yl}butyl)-N-(pyridin-3-ylmethyl)-1H-1,2,3-triazole-4-carboxamide] | 100 to 500 nM | 100 to 500 nM |
| O=C(NCc1ccccn1)c1cn(CCCCc2cc3c(-c4ccc(F)cc4F)c(C4CC4)[nH]c3nn2)nn1 [Example 151] | 100 to 500 nM | < 100 nM |
| Cc1ccc(CNC(=O)c2cn(CCCCc3cc4c(I)c(C5CC5)[nH]c4nn3)nn2)cn1 [Example 91, 1-(4-{6-cyclopropyl-5-iodo-7H-pyrrolo[2,3-c]pyridazin-3-yl}butyl)-N-[(6-methylpyridin-3-yl)methyl]-1H-1,2,3-triazole-4-carboxamide] | 100 to 500 nM | < 100 nM |
| O=C(NCc1ccc(C(F)(F)F)nc1)c1cn(CCCCc2cc3cc(C4CC4)[nH]c3nn2)nn1 [Example 40, 1-(4-{6-cyclopropyl-7H-pyrrolo[2,3-c]pyridazin-3-yl}butyl)-N-{[6-(trifluoromethyl)pyridin-3-yl]methyl}-1H-1,2,3-triazole-4-carboxamide] | 500 to 5000 nM | < 100 nM |
| O=C(Nc1nnc(CCCCc2cc3cc(Cc4ccccc4)[nH]c3nn2)s1)OC1CCOCC1 [Example 61, oxan-4-yl N-[5-(4-{6-benzyl-7H-pyrrolo[2,3-c]pyridazin-3-yl}butyl)-1,3,4-thiadiazol-2-yl]carbamate] | 500 to 5000 nM | < 100 nM |
| O=C(NCc1ccccn1)c1cn(CCCCc2cc3cc(C4CC4)[nH]c3nn2)nn1 [Example 16, 1-(4-(6-cyclopropyl-7H-pyrrolo[2,3-c]pyridazin-3-yl)butyl)-N-(pyridin-2-ylmethyl)-1H-1,2,3-triazole-4-carboxamide] | 100 to 500 nM | 100 to 500 nM |
